Biological target: T1, Human SST5 somatostatin receptor (Homo sapiens, UniProt P35346)
T1 construct: expressed in transfected cells; host or cells: HEK-293 EBNA cells (membranes)
Assay: Filter plate radio-ligand binding assay for SST5 receptor ([125I]SST-14 displacement)
Details: for % SST5 radio-ligand binding displaced at conc 0.25: conc 0.25 μM; for % SST5 radio-ligand binding displaced at conc 1.0: conc 1.0 μM; for % SST5 radio-ligand binding displaced at conc 0.5: conc 0.5 μM; for % SST5 radio-ligand binding displaced at conc 10: conc 10 μM; for % SST5 radio-ligand binding displaced at conc 0.001: conc 0.001 μM; for % SST5 radio-ligand binding displaced at conc 0.10: conc 0.10 μM

[1] = compound conc 50 μM, 2P library
[2] = compound conc 250 μM, 2P library
[3] = compound conc 500 μM, 2P library

T1 sequence (P35346 whole entry): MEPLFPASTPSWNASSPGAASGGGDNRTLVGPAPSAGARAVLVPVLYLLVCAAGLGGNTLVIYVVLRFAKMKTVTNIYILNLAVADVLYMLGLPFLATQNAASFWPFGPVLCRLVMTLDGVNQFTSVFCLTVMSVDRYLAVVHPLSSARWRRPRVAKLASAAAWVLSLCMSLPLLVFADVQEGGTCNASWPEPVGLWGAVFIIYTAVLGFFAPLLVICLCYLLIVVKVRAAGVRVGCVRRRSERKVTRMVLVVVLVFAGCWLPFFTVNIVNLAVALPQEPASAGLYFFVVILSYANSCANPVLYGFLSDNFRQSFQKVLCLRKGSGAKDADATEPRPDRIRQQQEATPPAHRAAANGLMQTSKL

Row | SMILES | % SST5 radio-ligand binding displaced at conc 0.25 (3P library) | % SST5 radio-ligand binding displaced at conc 1.0 (3P library) | % SST5 radio-ligand binding displaced at conc 50 [1] | % SST5 radio-ligand binding displaced at conc 250 [2] | % SST5 radio-ligand binding displaced at conc 500 [3] | further results
1 | COC[C@H]1O[C@H](OCc2ccc3ccccc3c2)[C@H](NC(=O)CCN)[C@@H](OCc2ccccc2Cl)[C@@H]1O [Compound 109] | − (% SST5 radio-ligand binding displaced at cone (μM) −<40%) | ++ (% SST5 radio-ligand binding displaced at conc (μM) >60%) |  |  |  | 
2 | COC1C(O)C(COCc2ccc3ccccc3c2)OC(OCc2ccc(Cl)cc2)C1NC(=O)C1CCCN1 (mixture of isomers) [Compound 167] |  |  |  |  |  | % SST5 radio-ligand binding displaced at conc 0.5 (3P library): ++ (% SST5 radio-ligand binding displaced at conc (μM) >60%); % SST5 radio-ligand binding displaced at conc 10 (3P library): ++ (% SST5 radio-ligand binding displaced at conc (μM) >60%)
3 | COCC1OC(OCc2ccc3ccccc3c2)C(NC(=O)CCCN)C(OCc2ccc3ccccc3c2)C1O (mixture of isomers) [Compound 129] | − (% SST5 radio-ligand binding displaced at cone (μM) −<40%) | ++ (% SST5 radio-ligand binding displaced at conc (μM) >60%) |  |  |  | % SST5 radio-ligand binding displaced at conc 0.001 (3P library): − (% SST5 radio-ligand binding displaced at cone (μM) −<40%); % SST5 radio-ligand binding displaced at conc 0.10 (3P library): + (% SST5 radio-ligand binding displaced at cone (μM) 60>+>40%); % SST5 radio-ligand binding displaced at conc 10 (3P library): ++ (% SST5 radio-ligand binding displaced at conc (μM) >60%)
4 | CO[C@H]1[C@H](O)[C@@H](COCc2ccc(-c3ccccc3)cc2)OC(OCc2ccc3ccccc3c2)[C@@H]1NC(=O)CCN (single isomer, unassigned) [Compound 96] | − (% SST5 radio-ligand binding displaced at cone (μM) −<40%) | − (% SST5 radio-ligand binding displaced at cone (μM) −<40%) |  |  |  | 
5 | COC[C@H]1OC(OCc2ccc3ccccc3c2)[C@H](NC(=O)CCN)[C@@H](OCc2ccc(Cl)cc2)[C@@H]1O (single isomer, unassigned) [Compound 89] | − (% SST5 radio-ligand binding displaced at cone (μM) −<40%) | − (% SST5 radio-ligand binding displaced at cone (μM) −<40%) |  |  |  | 
6 | COC[C@H]1O[C@H](OCc2ccc3ccccc3c2)[C@H](NC(=O)CCN)[C@@H](OC)[C@@H]1O [Compound 60] |  |  |  |  |  | % SST5 radio-ligand binding displaced at conc 50 (conc 50 μM, 3P library): − (% SST5 radio-ligand binding displaced at cone (μM) −<40%); % SST5 radio-ligand binding displaced at conc 250 (conc 250 μM, 3P library): + (% SST5 radio-ligand binding displaced at cone (μM) 60>+>40%); % SST5 radio-ligand binding displaced at conc 500 (conc 500 μM, 3P library): ++ (% SST5 radio-ligand binding displaced at conc (μM) >60%)
7 | COC[C@H]1O[C@H](OCc2ccc3ccccc3c2)[C@H](NC(=O)CCN)[C@@H](OCc2cccc(Cl)c2Cl)[C@@H]1O [Compound 117] | ++ (% SST5 radio-ligand binding displaced at conc (μM) >60%) | ++ (% SST5 radio-ligand binding displaced at conc (μM) >60%) |  |  |  | 
8 | COC[C@H]1O[C@H](OCc2ccc3ccccc3c2)[C@H](NC(=O)CCCN)[C@@H](OCc2ccc(Cl)cc2)[C@@H]1O [Compound 134] |  | ++ (% SST5 radio-ligand binding displaced at conc (μM) >60%) |  |  |  | % SST5 radio-ligand binding displaced at conc 0.001 (3P library): + (% SST5 radio-ligand binding displaced at cone (μM) 60>+>40%); % SST5 radio-ligand binding displaced at conc 0.10 (3P library): ++ (% SST5 radio-ligand binding displaced at conc (μM) >60%); % SST5 radio-ligand binding displaced at conc 0.5 (3P library): ++ (% SST5 radio-ligand binding displaced at conc (μM) >60%); % SST5 radio-ligand binding displaced at conc 10 (3P library): ++ (% SST5 radio-ligand binding displaced at conc (μM) >60%)
9 | COC[C@H]1O[C@H](OCc2ccc3ccccc3c2)[C@H](NC(=O)CCCN)[C@@H](OCc2ccccc2Cl)[C@@H]1O [Compound 146] | − (% SST5 radio-ligand binding displaced at cone (μM) −<40%) | ++ (% SST5 radio-ligand binding displaced at conc (μM) >60%) |  |  |  | 
10 | COC[C@H]1O[C@H](OCc2ccc3ccccc3c2)[C@H](NC(=O)CCN)[C@@H](OCc2cc(Cl)ccc2Cl)[C@@H]1O [Compound 108] | + (% SST5 radio-ligand binding displaced at cone (μM) 60>+>40%) | ++ (% SST5 radio-ligand binding displaced at conc (μM) >60%) |  |  |  | 
11 | NCCC(=O)NC1C(OCc2ccc3ccccc3c2)OC(COCc2ccccc2)C(O)C1OCc1ccc2ccccc2c1 (centres unmarked) [Compound 81] | − (% SST5 radio-ligand binding displaced at cone (μM) −<40%) | ++ (% SST5 radio-ligand binding displaced at conc (μM) >60%) |  |  |  | 
12 | COC[C@H]1O[C@H](OCc2ccc3ccccc3c2)[C@H](NC(=O)CCCN)[C@@H](OCc2ccc3ccccc3n2)[C@@H]1O [Compound 153] | ++ (% SST5 radio-ligand binding displaced at conc (μM) >60%) | ++ (% SST5 radio-ligand binding displaced at conc (μM) >60%) |  |  |  | 
13 | COCC1OC(OCc2ccc3ccccc3c2)C(NC(=O)CCN)C(OCc2ccc(-c3ccccc3)cc2)C1O (mixture of isomers) [Compound 68] | − (% SST5 radio-ligand binding displaced at cone (μM) −<40%) | ++ (% SST5 radio-ligand binding displaced at conc (μM) >60%) |  |  |  | % SST5 radio-ligand binding displaced at conc 0.001 (3P library): − (% SST5 radio-ligand binding displaced at cone (μM) −<40%); % SST5 radio-ligand binding displaced at conc 0.10 (3P library): − (% SST5 radio-ligand binding displaced at cone (μM) −<40%); % SST5 radio-ligand binding displaced at conc 0.5 (3P library): ++ (% SST5 radio-ligand binding displaced at conc (μM) >60%); % SST5 radio-ligand binding displaced at conc 10 (3P library): ++ (% SST5 radio-ligand binding displaced at conc (μM) >60%)
14 | COC[C@H]1O[C@@H](OCc2ccc3ccccc3c2)[C@H](NC(=O)CCN)[C@@H](OC)[C@@H]1O [Compound 21] |  |  | − (% SST5 radio-ligand binding displaced at cone (μM) −<40%) | + (% SST5 radio-ligand binding displaced at cone (μM) 60>+>40%) | ++ (% SST5 radio-ligand binding displaced at conc (μM) >60%) | 
15 | COC1C(O)C(COCc2ccc3ccccc3c2)OC(OCc2ccc(Cl)cc2)C1NC(=O)C1CCCN1 (mixture of isomers) [Compound 165] |  |  |  |  |  | % SST5 radio-ligand binding displaced at conc 0.5 (3P library): − (% SST5 radio-ligand binding displaced at cone (μM) −<40%); % SST5 radio-ligand binding displaced at conc 10 (3P library): ++ (% SST5 radio-ligand binding displaced at conc (μM) >60%)
16 | COC[C@H]1O[C@@H](SC)[C@H](NC(=O)CCCN)[C@H](OCc2ccc(Cl)cc2)[C@@H]1O [Compound 43] |  |  | − (% SST5 radio-ligand binding displaced at cone (μM) −<40%) | − (% SST5 radio-ligand binding displaced at cone (μM) −<40%) | − (% SST5 radio-ligand binding displaced at cone (μM) −<40%) | 
17 | COCC1OC(SC)C(NC(=O)CN)C(OCc2ccc3ccccc3c2)C1O (centres unmarked) [Compound 32] |  |  | − (% SST5 radio-ligand binding displaced at cone (μM) −<40%) | − (% SST5 radio-ligand binding displaced at cone (μM) −<40%) | − (% SST5 radio-ligand binding displaced at cone (μM) −<40%) | 
18 | COC[C@H]1O[C@H](OCc2ccc3ccccc3c2)[C@H](NC(=O)CCN)[C@@H](OCc2cccc3cccnc23)[C@@H]1O [Compound 110] | ++ (% SST5 radio-ligand binding displaced at conc (μM) >60%) | ++ (% SST5 radio-ligand binding displaced at conc (μM) >60%) |  |  |  | 
19 | COC[C@H]1O[C@@H](OCc2ccc(Cl)cc2)[C@H](NC(=O)CCCN)[C@H](OC)[C@@H]1O [Compound 44] |  |  | − (% SST5 radio-ligand binding displaced at cone (μM) −<40%) | − (% SST5 radio-ligand binding displaced at cone (μM) −<40%) | ++ (% SST5 radio-ligand binding displaced at conc (μM) >60%) | 
20 | COCC1OC(OCc2ccc3ccccc3c2)C(NC(=O)CCCN)C(OCc2ccc(-c3ccccc3)cc2)C1O (mixture of isomers) [Compound 131] |  |  |  |  |  | % SST5 radio-ligand binding displaced at conc 10 (3P library): ++ (% SST5 radio-ligand binding displaced at conc (μM) >60%)
21 | COC1C(O)C(COCc2ccc(-c3ccccc3)cc2)OC(OCc2ccc(Cl)cc2)C1NC(=O)CN (mixture of isomers) [Compound 178] | − (% SST5 radio-ligand binding displaced at cone (μM) −<40%) | − (% SST5 radio-ligand binding displaced at cone (μM) −<40%) |  |  |  | 
22 | COC[C@H]1O[C@@H](SC)[C@H](NC(=O)CCN)[C@H](OCc2ccc(Cl)cc2)[C@@H]1O [Compound 37] |  |  | − (% SST5 radio-ligand binding displaced at cone (μM) −<40%) | − (% SST5 radio-ligand binding displaced at cone (μM) −<40%) | − (% SST5 radio-ligand binding displaced at cone (μM) −<40%) | 
23 | COC[C@H]1O[C@@H](OCc2ccc3ccccc3c2)[C@H](NC(=O)CCCN)[C@H](OC)[C@@H]1O [Compound 45] |  |  | − (% SST5 radio-ligand binding displaced at cone (μM) −<40%) | + (% SST5 radio-ligand binding displaced at cone (μM) 60>+>40%) | ++ (% SST5 radio-ligand binding displaced at conc (μM) >60%) | 
24 | COC[C@H]1O[C@H](OCc2ccc3ccccc3c2)[C@H](NC(=O)CN)[C@H](OC)[C@@H]1O [Compound 34] |  |  | − (% SST5 radio-ligand binding displaced at cone (μM) −<40%) | − (% SST5 radio-ligand binding displaced at cone (μM) −<40%) | − (% SST5 radio-ligand binding displaced at cone (μM) −<40%) | 
25 | COC[C@H]1O[C@H](OCc2ccc3ccccc3c2)[C@H](NC(=O)CN)[C@@H](OC)[C@@H]1O [Compound 12] |  |  | − (% SST5 radio-ligand binding displaced at cone (μM) −<40%) | − (% SST5 radio-ligand binding displaced at cone (μM) −<40%) | − (% SST5 radio-ligand binding displaced at cone (μM) −<40%) | 

Source: patent publication US8426345B2, “Method of drug design” (Alchemia Limited, priority 2005, dated 2013)
